# Laboratory results reported in patent US10828300B2, “Substituted 2,4-diaminopyrimidines as kinase inhibitors” (Celgene CAR LLC, priority 2008, dated 2020).
# Entries after “also recorded” stand apart in the source; their conditions may differ.
# Biological target: T1, BTK (Homo sapiens (Human), UniProt Q06187)
# Assay: Washout experiment with Ramos cells (PLCγ2 phosphorylation)
# Type: cell-based
# Details: Ramos washout assay, 100 nM compound for 1 hour
# Experimental: Washout Experiment with Ramos Cells
# Ramos cells were serum starved for one hour in RPMI media +1% glutamine at 37° C. After starvation, Ramos cells were treated with 100 nM compound diluted in serum free RPMI media for 1 hour. After compound treatment, the media was removed and cells were washed with compound-free media. Subsequently, Ramos cells were washed every 2 hours and resuspended in fresh compound-free media. Cells were collected at specified timepoints, treated with 1 ug anti-human IgM (Southern Biotech cat #2022-01) for 10 minutes on ice to induce BCR signaling and then washed in PBS. Ramos cells were then lysed in Cell Extraction Buffer (Invitrogen FNN0011) supplemented with Roche complete protease inhibitor tablets (Roche 11697498001) and phosphatase inhibitors (Roche 04 906 837 001) and 18 ug total protein lysate was loaded in each lane. Inhibition of BTK kinase activity was assayed by measuring its substrate (PLCγ2) phosphorylation by western blot with phospho-specific antibodies from Cell Signaling Technologies cat#3871. The results of this experiment with compounds I-2, I-4 and I-7 are depicted in FIGS. 1, 2 and 3.
# T1 sequence (Q06187 whole entry): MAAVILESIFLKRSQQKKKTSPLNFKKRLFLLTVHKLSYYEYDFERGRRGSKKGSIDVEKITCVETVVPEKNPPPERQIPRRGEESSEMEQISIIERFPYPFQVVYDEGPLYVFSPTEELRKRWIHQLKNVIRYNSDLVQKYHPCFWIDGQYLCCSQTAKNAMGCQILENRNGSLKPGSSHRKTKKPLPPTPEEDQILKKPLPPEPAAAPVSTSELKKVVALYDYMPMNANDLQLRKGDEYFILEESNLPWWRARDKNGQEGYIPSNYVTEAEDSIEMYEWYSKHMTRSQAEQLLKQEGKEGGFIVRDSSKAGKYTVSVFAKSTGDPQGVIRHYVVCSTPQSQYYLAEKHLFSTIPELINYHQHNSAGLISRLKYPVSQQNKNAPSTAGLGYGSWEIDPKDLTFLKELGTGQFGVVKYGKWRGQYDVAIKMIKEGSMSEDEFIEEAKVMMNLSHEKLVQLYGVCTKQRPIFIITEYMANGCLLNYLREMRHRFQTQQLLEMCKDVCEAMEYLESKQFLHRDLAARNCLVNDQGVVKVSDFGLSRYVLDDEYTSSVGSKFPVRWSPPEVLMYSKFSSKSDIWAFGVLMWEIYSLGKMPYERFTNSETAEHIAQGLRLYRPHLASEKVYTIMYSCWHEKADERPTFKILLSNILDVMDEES
row,Compound,BTK Inhibition Type
1,"C=CC(=O)Nc1cccc(Nc2ncc(C)c(Nc3cccc(C)c3)n2)c1 [Compound I-2, N-(3-(5-methyl-4-(m-tolylamino)pyrimidin-2-ylamino)phenyl) acrylamide]",irreversible
2,"C=CC(=O)Nc1cccc(Nc2nc(Nc3ccccc3)ncc2F)c1 [Compound I-28, N-(3-(5-fluoro-2-(phenylamino)pyrimidin-4-ylamino)phenyl)acrylamide]",irreversible
3,"C#CCOc1cccc(Nc2ncc(C)c(Nc3cccc(NC(=O)C=C)c3)n2)c1 [Compound I-35, N-(3-(5-methyl-2-(3-(prop-2-ynyloxy)phenylamino)pyrimidin-4-ylamino)phenyl) acrylamide]",irreversible
4,"Cc1cnc(Nc2ccccc2)nc1Nc1cccc(NC(=O)/C=C/CN(C)C)c1 [Compound I-38, (E)-4-(dimethylamino)-N-(3-(5-methyl-2-(phenylamino)pyrimidin-4-ylamino)phenyl)but-2-enamide]",reversible
5,"C=CC(=O)Nc1cccc(Oc2nc(Nc3ccccc3)ncc2F)c1 [Compound I-228, N-(3-(5-fluoro-2-(phenylamino)pyrimidin-4-yloxy)phenyl)acrylamide]",irreversible
6,"C=CC(=O)Nc1cccc(Nc2nc(Nc3ccccc3)ncc2C(N)=O)c1 [Compound I-230, 4-(3-acrylamidophenylamino)-2-(phenylamino)pyrimidine-5-carboxamide]",irreversible
7,"C=CC(=O)Nc1cccc(Nc2nc(Nc3cccc(OC)c3)ncc2C(F)(F)F)c1 [Compound I-242, N-(3-(5-trifluoromethyl-2-(3-methoxyphenylamino)pyrimidin-4-ylamino)phenyl)acrylamide]",irreversible
8,"C=CC(=O)Nc1cccc(Nc2nc(Nc3ccc(OC)nc3)ncc2F)c1 [Compound I-243, N-(3-(5-fluoro-2-(6-methoxypyridin-3-ylamino)pyrimidin-4-ylamino)phenyl)acrylamide]",irreversible
9,"C=CC(=O)Nc1cccc(Nc2nc(Nc3ccc(F)cc3)ncc2F)c1 [Compound I-247, N-(3-(5-fluoro-2-(4-fluorophenylamino)pyrimidin-4-ylamino)phenyl)acrylamide]",irreversible
10,"C=CC(=O)Nc1cccc(Oc2nc(Nc3ccccc3)ncc2C)c1 [Compound I-248, N-(3-(5-methyl-2-(phenylamino)pyrimidin-4-yloxy)phenyl)acrylamide]",irreversible

# Biological target: T1, BTK
# Assay: Mass spectrometry for BTK (intact protein, covalent modification)
# Type: binding
# Details: intact BTK, 1 hr, 10× fold excess of compound
# Experimental: Mass Spectrometry for BTK
# Intact BTK was incubated for 1 hr at a 10× fold excess of I-7 to protein. Aliquots (2 μl) of the samples were diluted with 10 μl of 0.1% TFA prior to micro C4 ZipTipping directly onto the MALDI target using Sinapinic acid as the desorption matrix (10 mg/ml in 0.1% TFA:Acetonitrile 20:80).
row,Compound,covalent modification of BTK by mass spectrometry
1,2-((4-(5-fluoro-2-(3-trifluoromethoxyphenylamino)pyrimidin-4-ylamino)phenyl)(hydroxy)methyl)acrylonitrile [Compound I-163],completely modify
2,"C=C(C#N)C(O)c1cccc(Nc2nc(Nc3ccc(OCCOC)cc3)ncc2F)c1 (stereo not shown) [Compound I-71, 2-((3-(5-fluoro-2-(4-(2-methoxyethoxy)phenylamino)pyrimidin-4-ylamino)phenyl)(hydroxy)methyl)acrylonitrile]",completely modify
3,"C=CC(=O)Nc1cccc(Nc2nc(Nc3ccc(OCCOC)c(F)c3)ncc2F)c1 [Compound I-96, N-(3-(2-(3-fluoro-4-(2-methoxyethoxy)phenylamino)-5-fluoropyrimidin-4-ylamino)phenyl)acrylamide]",completely modify
4,"C=CC(=O)N1CCOc2ccc(Nc3ncc(F)c(Nc4cccc(Cl)c4)n3)cc21 [Compound I-149, 1-(6-(4-(3-chlorophenylamino)-5-fluoropyrimidin-2-ylamino)-2H-benzo[b][1,4]oxazin-4(3H)-yl)prop-2-en-1-one]",completely modify
5,"C=C(C#N)C(O)c1ccc(Nc2nc(Nc3ccccc3)ncc2F)cc1 (stereo not shown) [Compound I-161, 2-((4-(5-fluoro-2-(phenylamino)pyrimidin-4-ylamino)phenyl)(hydroxy)methyl)acrylonitrile]",completely modify
6,"C=CC(=O)Nc1cccc(Nc2nc(Nc3ccc(OCCOC)cc3)ncc2F)c1 [Compound I-182, N-(3-(5-fluoro-2-(4-(2-methoxyethoxy)phenylamino)pyrimidin-4-ylamino)phenyl)acrylamide]",completely modify
7,"C=CC(=O)N1CCC[C@@H](Nc2nc(Nc3cccc(OC)c3)ncc2F)C1 [Compound I-195, (R)-1-(3-(5-fluoro-2-(3-methoxyphenylamino)pyrimidin-4-ylamino)piperidin-1-yl)prop-2-en-1-one]",completely modify
8,CC(C)=CC(=O)c1cccc(Nc2nc(Nc3cccc(OCCN(C)C)c3)ncc2F)c1 [Compound I-207],completely modify
9,"C=CC(=O)N(C)Cc1ccc(Nc2nc(Nc3ccccc3)ncc2C)cc1 [Compound I-219, N-methyl-N-(4-(5-methyl-2-(phenylamino)pyrimidin-4-ylamino)benzyl)acrylamide]",completely modify
10,"C=CC(=O)Nc1cccc(Nc2nc(Nc3cccc(OC(F)(F)F)c3)ncc2F)c1 [Compound I-244, N-(3-(5-fluoro-2-(3-(trifluoromethoxy)phenylamino)pyrimidin-4-ylamino)phenyl)acrylamide]",completely modify

# Biological target: TEC kinase (Homo sapiens (Human), UniProt P42680)
# Sequence (P42680 whole entry): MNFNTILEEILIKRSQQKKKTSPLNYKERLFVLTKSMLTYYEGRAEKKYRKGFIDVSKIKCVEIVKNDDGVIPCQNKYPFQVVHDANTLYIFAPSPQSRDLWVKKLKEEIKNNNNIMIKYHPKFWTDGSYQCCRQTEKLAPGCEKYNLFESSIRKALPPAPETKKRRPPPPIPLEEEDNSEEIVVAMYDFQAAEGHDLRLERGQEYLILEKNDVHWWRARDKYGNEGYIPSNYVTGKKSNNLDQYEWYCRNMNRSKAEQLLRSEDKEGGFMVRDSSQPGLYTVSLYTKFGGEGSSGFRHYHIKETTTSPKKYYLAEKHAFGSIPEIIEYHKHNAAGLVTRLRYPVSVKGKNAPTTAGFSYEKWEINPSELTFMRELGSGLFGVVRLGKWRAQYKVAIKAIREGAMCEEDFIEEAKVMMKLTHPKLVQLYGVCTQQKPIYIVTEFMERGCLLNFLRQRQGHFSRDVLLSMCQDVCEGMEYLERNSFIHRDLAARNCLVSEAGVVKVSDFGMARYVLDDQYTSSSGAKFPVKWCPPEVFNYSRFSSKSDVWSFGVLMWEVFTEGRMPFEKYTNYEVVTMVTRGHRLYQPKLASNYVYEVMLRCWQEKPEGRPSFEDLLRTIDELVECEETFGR
# Assay: Mass spectrometry for TEC kinase (tryptic digest)
# Type: binding, Homo sapien
# Details: 3 hrs at 10× excess, peptide GCLLNFLR
# Experimental: Mass Spectrometry for TEC Kinase (Compound I-2)
# (§1) TEC kinase (45 pmols; Invitrogen) was incubated with (I-2) (450 pmols) for 3 hrs at 10× excess prior to tryptic digestion. Iodoacetamide was used as the alkylating agent after compound incubation. […] For tryptic digests a 5 ul aliquot (7.5 pmols) was diluted with 15 ul of 0.1% TFA prior to micro C18 Zip Tipping directly onto the MALDI target using alpha cyano-4-hydroxy cinnamic acid as the matrix (5 mg/ml in 0.1% TFA:Acetonitrile 50:50).
# (§2) For tryptic digests the instrument was set in Reflectron mode with a pulsed extraction setting of 2200. Calibration was done using the Laser Biolabs Pep Mix standard ([…], 1296.69, 1672.92, 2093.09, 2465.20). For CID/PSD analysis the peptide was selected using cursors to set ion gate timing and fragmentation occurred at a laser power about 20% higher and He was used as the collision gas for CID. Calibration for fragments was done using the P14R fragmentation calibration for the Curved field Reflectron.
# Mass Spectrometry for TEC Kinase (Compound I-4)
# as §1, with “(I-4)” for “(I-2)”
# as §2, with “1800.” for “2200.”
# Mass Spectrometry for TEC Kinase (Compound I-7) […]
row,Compound,covalent modification of TEC kinase by mass spectrometry
1,"C=CC(=O)Nc1cccc(Nc2ncc(C)c(Nc3cccc(C)c3)n2)c1 [Compound I-2, N-(3-(5-methyl-4-(m-tolylamino)pyrimidin-2-ylamino)phenyl) acrylamide]",covalent modification of TEC kinase at Cys449; also recorded: reaction was complete

# Biological target: T1, BTK
# Assay: BTK occupancy from in vitro samples by ELISA (Ramos cells, probe I-215)
# Type: cell-based
# Details: probe I-215 ELISA
# Text: Measuring BTK occupancy from in vitro samples by ELISA
# In order to determine the amount of free BTK in cell or tissue lysates, an ELISA protocol was employed that utilizes a biotinylated probe compound that binds only to free, unoccupied BTK. The conjugated biotin is captured on a streptavidin-coated ELISA plate and detected with a mouse anti-BTK antibody (Becton Dickinson, Franklin Lakes, N.J., USA) and a secondary goat anti-mouse HRP antibody (Zymed, South San Francisco, Calif., USA).
# All samples were prepared with equal concentrations of Biorad lysis buffer (Hercules, Calif., USA), 0.5% bovine serum albumin in PBS with 0.05% Tween-20 to give a final concentration of 1 μM I-215. Samples were incubated in a mixing plate for 1 hr at room temperature while shaking to allow probe compound I-215 to bind to free BTK. After incubation with I-215, samples were added to a washed, streptavidin-coated ELISA plate (Pierce, Rockford, Ill., USA) and incubated for 1 hr at room temperature while shaking. The plate was then washed with PBS containing 0.05% Tween-20 using an automatic plate washer. Anti-BTK antibody was prepared at 1:1000 dilution in 0.5% BSA in PBS (0.05% Tween-20) and added to the ELISA plate. The plate was incubated for 1 hr at room temperature while shaking. The plate was washed as described above and the secondary HRP antibody was prepared at 1:5000 dilution in 0.5% BSA in PBS (0.05% Tween-20). The plate was incubated and washed as described above. TMB was added to the plate, and OD650 was monitored until reaching 1 OD unit. The reaction was then stopped with addition of H2SO4. The plate was analyzed using Gen 5 software, and a 4 Parameter Logistic curve was employed to quantitate samples. Recombinant BTK (Invitrogen, Carlsbad, Calif., USA) was used for the standard curve.
# A concentration designated as “A” is greater than 1 nM; a concentration designated as “B” is greater than 10 nM; and a concentration designated as “C” is greater than 50 nM.
Compound,concentration at which >50% of BTK is occupied,concentration at which >90% of BTK is occupied
"C=CC(=O)Nc1cccc(Nc2nc(Nc3ccc(OCCOC)c(F)c3)ncc2F)c1 [Compound I-96, N-(3-(2-(3-fluoro-4-(2-methoxyethoxy)phenylamino)-5-fluoropyrimidin-4-ylamino)phenyl)acrylamide]",A (greater than 1 nM),B (greater than 10 nM)
"C=CC(=O)Nc1cccc(Nc2nc(Nc3ccc(OCCOC)cc3)ncc2F)c1 [Compound I-182, N-(3-(5-fluoro-2-(4-(2-methoxyethoxy)phenylamino)pyrimidin-4-ylamino)phenyl)acrylamide]",A (greater than 1 nM),C (greater than 50 nM)
